Publication PMC11867108, “Design and application of a fluorescent probe for imaging of endogenous Bruton's tyrosine kinase with preserved enzymatic activity” (RSC Chemical Biology, 2025)

Key:
[1] = molecular target: T1, Bruton's tyrosine kinase (BTK) (Homo sapiens, UniProt Q06187); experiment: in-gel fluorescence under denaturing conditions (covalent labelling); ADP-Glo IC50; type: biochemical
T1 construct: full-length recombinant BTK

[2] = molecular target: T1, Bruton's tyrosine kinase (BTK); experiment: LC-MS/MS of tryptic peptide […]-487 and in-gel fluorescence; ADP-Glo IC50; immunoprecipitation from Ramos cells; type: biochemical

T1 sequence (Q06187 2-659): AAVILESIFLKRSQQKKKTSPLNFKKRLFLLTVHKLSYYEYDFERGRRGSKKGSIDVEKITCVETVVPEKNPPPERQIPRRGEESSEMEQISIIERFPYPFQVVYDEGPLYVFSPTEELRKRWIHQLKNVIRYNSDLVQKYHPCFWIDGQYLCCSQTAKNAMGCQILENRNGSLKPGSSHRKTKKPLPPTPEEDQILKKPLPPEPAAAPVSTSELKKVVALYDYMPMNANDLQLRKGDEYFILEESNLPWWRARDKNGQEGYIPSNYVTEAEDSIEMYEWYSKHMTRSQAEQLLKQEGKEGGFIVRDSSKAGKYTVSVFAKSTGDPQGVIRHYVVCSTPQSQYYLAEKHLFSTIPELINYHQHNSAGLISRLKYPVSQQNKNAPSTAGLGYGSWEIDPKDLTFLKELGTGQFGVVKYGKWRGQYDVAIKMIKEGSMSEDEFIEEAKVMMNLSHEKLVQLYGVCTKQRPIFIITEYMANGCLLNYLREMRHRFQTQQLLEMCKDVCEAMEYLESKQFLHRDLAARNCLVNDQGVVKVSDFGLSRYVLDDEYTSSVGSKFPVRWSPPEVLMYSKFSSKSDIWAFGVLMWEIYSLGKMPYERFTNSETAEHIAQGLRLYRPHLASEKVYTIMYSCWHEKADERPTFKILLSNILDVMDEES

SMILES | IC50 [1] | IC50 [2]
C=C(CN1CCC(CNc2ncnc(N)c2-c2ccc(Oc3ccccc3)cc2)CC1)C(=O)NCCNC(=O)CCC1=[N+]2C(=Cc3c(C)cc(C)n3[B-]2(F)F)C=C1 [Evo-1] | 7.61 µM | 
C=C(CN1CCC(CNc2ncnc(N)c2-c2ccc(Oc3ccccc3)cc2)CC1)C(=O)N1CCC(NC(=O)CCC2=[N+]3C(=Cc4c(C)cc(C)n4[B-]3(F)F)C=C2)CC1 [Evo-2] |  | > 10 µM
